From the CheMixHub viscosity set

Assay: xn = mol fraction of the nth substance listed

CCOC(=O)CCl + N#CCc1ccccc1
Conditions | viscosity [mPa·s]
308.15 K, 101 kPa, x2 = 0.3793 | 1.155

OC[C@@H](O)[C@@H](O)[C@H](O)[C@@H](O)CO + CC(=O)[O-].CC[n+]1ccn(C)c1
Conditions | viscosity [mPa·s]
313.15 K, 100 kPa, x1 = 0.5 | 572.5

COC(=O)c1ccccc1 + CCCCO
viscosity [mPa·s], 100 kPa
Conditions | x1 = 0.05 | x1 = 0.1 | x1 = 0.2 | x1 = 0.3 | x1 = 0.45 | x1 = 0.6 | x1 = 0.749 | x1 = 0.849 | x1 = 0.899 | x1 = 0.95
293.2 K | 2.62 | 2.397 | 2.097 | 1.922 | 1.787 | 1.746 | 1.777 | 1.836 | 1.885 | 1.95
298.2 K | 2.308 | 2.119 | 1.866 | 1.719 | 1.606 | 1.574 | 1.604 | 1.659 | 1.703 | 1.761
303.2 K | 2.041 | 1.882 | 1.668 | 1.545 | 1.453 | 1.429 | 1.459 | 1.509 | 1.549 | 1.6
308.2 K | 1.813 | 1.678 | 1.5 | 1.398 | 1.32 | 1.303 | 1.333 | 1.381 | 1.417 | 1.464
313.2 K | 1.616 | 1.505 | 1.354 | 1.267 | 1.204 | 1.193 | 1.224 | 1.269 | 1.303 | 1.345

CC(C)OCCO + CCCCCCO
viscosity [mPa·s], 101 kPa
Conditions | 298.15 K | 303.15 K | 308.15 K
x1 = 0.0533 | 4.409 | 3.75 | 3.294
x1 = 0.1018 | 4.192 | 3.555 | 3.096
x1 = 0.1512 | 3.993 | 3.38 | 2.917
x1 = 0.2013 | 3.789 | 3.2 | 2.752
x1 = 0.254 | 3.6 | 3.033 | 2.601
x1 = 0.3074 | 3.4 | 2.857 | 2.449
x1 = 0.4034 | 3.103 | 2.596 | 2.216
x1 = 0.5044 | 2.834 | 2.374 | 2.028
x1 = 0.6042 | 2.631 | 2.216 | 1.894
x1 = 0.7118 | 2.449 | 2.079 | 1.79
x1 = 0.8046 | 2.312 | 1.985 | 1.758
x1 = 0.8418 | 2.305 | 1.991 | 1.777
x1 = 0.9001 | 2.262 | 1.975 | 1.763
x1 = 0.953 | 2.226 | 1.952 | 1.771

CC(C)OCCO + CCCNCCC
viscosity [mPa·s], 101.33 kPa
Conditions | 298.15 K | 308.15 K | 318.15 K
x1 = 0.0484 | 0.544 | 0.476 | 0.41
x1 = 0.0855 | 0.581 | 0.505 | 0.435
x1 = 0.1225 | 0.625 | 0.534 | 0.458
x1 = 0.1899 | 0.704 | 0.599 | 0.502
x1 = 0.2514 | 0.798 | 0.671 | 0.555
x1 = 0.3234 | 0.918 | 0.76 | 0.617
x1 = 0.3933 | 1.046 | 0.855 | 0.685
x1 = 0.4465 | 1.154 | 0.941 | 0.747
x1 = 0.482 | 1.237 | 1.001 | 0.785
x1 = 0.5205 | 1.313 | 1.058 | 0.83
x1 = 0.6318 | 1.571 | 1.242 | 0.959
x1 = 0.73 | 1.776 | 1.381 | 1.076
x1 = 0.8358 | 1.959 | 1.516 | 1.187
x1 = 0.919 | 2.057 | 1.595 | 1.268
x1 = 0.9596 | 2.087 | 1.618 | 1.292

COC(=O)c1ccccc1 + CCCCCCCCCC
101 kPa
Conditions | viscosity [mPa·s]
298.15 K, x2 = 0.0262 | 1.743
298.15 K, x2 = 0.0672 | 1.629
298.15 K, x2 = 0.1282 | 1.488
298.15 K, x2 = 0.172 | 1.406
298.15 K, x2 = 0.2455 | 1.29
298.15 K, x2 = 0.2831 | 1.234
298.15 K, x2 = 0.3238 | 1.184
298.15 K, x2 = 0.3645 | 1.141
298.15 K, x2 = 0.4095 | 1.095
298.15 K, x2 = 0.458 | 1.05
298.15 K, x2 = 0.5093 | 1.012
298.15 K, x2 = 0.563 | 0.972
298.15 K, x2 = 0.6077 | 0.946
298.15 K, x2 = 0.6694 | 0.915
298.15 K, x2 = 0.7276 | 0.891
298.15 K, x2 = 0.8044 | 0.868
298.15 K, x2 = 0.8571 | 0.855
298.15 K, x2 = 0.9293 | 0.845
308.15 K, x2 = 0.0467 | 1.4
308.15 K, x2 = 0.0764 | 1.34
308.15 K, x2 = 0.1148 | 1.271
308.15 K, x2 = 0.1464 | 1.219
308.15 K, x2 = 0.1853 | 1.163
308.15 K, x2 = 0.2147 | 1.12
308.15 K, x2 = 0.2537 | 1.076
308.15 K, x2 = 0.2939 | 1.031
308.15 K, x2 = 0.3391 | 0.988
308.15 K, x2 = 0.3803 | 0.956
308.15 K, x2 = 0.429 | 0.922
308.15 K, x2 = 0.4756 | 0.894
308.15 K, x2 = 0.5274 | 0.866
308.15 K, x2 = 0.575 | 0.841
308.15 K, x2 = 0.6318 | 0.816
308.15 K, x2 = 0.6926 | 0.79
308.15 K, x2 = 0.7434 | 0.775
308.15 K, x2 = 0.8116 | 0.759
308.15 K, x2 = 0.887 | 0.747
318.15 K, x2 = 0.0153 | 1.249
318.15 K, x2 = 0.0485 | 1.196
318.15 K, x2 = 0.0774 | 1.151
318.15 K, x2 = 0.113 | 1.101
318.15 K, x2 = 0.1467 | 1.058
318.15 K, x2 = 0.1837 | 1.015
318.15 K, x2 = 0.2171 | 0.977
318.15 K, x2 = 0.2582 | 0.936
318.15 K, x2 = 0.2931 | 0.903
318.15 K, x2 = 0.3395 | 0.863
318.15 K, x2 = 0.3892 | 0.826
318.15 K, x2 = 0.4363 | 0.795
318.15 K, x2 = 0.4972 | 0.76
318.15 K, x2 = 0.5486 | 0.734
318.15 K, x2 = 0.6025 | 0.713
318.15 K, x2 = 0.6669 | 0.692
318.15 K, x2 = 0.7208 | 0.678
318.15 K, x2 = 0.7971 | 0.663
318.15 K, x2 = 0.8627 | 0.655

CCCCOCCO + O=[N+]([O-])c1ccccc1
298.15 K, 101 kPa
Conditions | viscosity [mPa·s]
x2 = 0.0547 | 2.794
x2 = 0.1022 | 2.774
x2 = 0.2045 | 2.736
x2 = 0.3045 | 2.699
x2 = 0.4006 | 2.651
x2 = 0.4508 | 2.618
x2 = 0.4991 | 2.58
x2 = 0.5486 | 2.537
x2 = 0.594 | 2.492
x2 = 0.6924 | 2.376
x2 = 0.7994 | 2.223
x2 = 0.8996 | 2.042
x2 = 0.9389 | 1.959

CCCCCCCC(=O)OCC(COC(=O)CCCCCCC)OC(=O)CCCCCCC + CCCCO
viscosity [mPa·s], 101.33 kPa
Conditions | x1 = 0.1 | x1 = 0.2 | x1 = 0.3 | x1 = 0.4 | x1 = 0.5 | x1 = 0.6 | x1 = 0.7 | x1 = 0.8 | x1 = 0.9
298 K | 3.87 | 5.49 | 7.15 | 8.84 | 10.54 | 12.28 | 14.02 | 16.05 | 18
303 K | 3.4 | 4.73 | 6.13 | 7.53 | 8.91 | 10.29 | 11.73 | 13.34 | 14.82
308 K | 2.97 | 4.12 | 5.28 | 6.46 | 7.57 | 8.74 | 9.89 | 11.2 | 12.39
313 K | 2.62 | 3.61 | 4.59 | 5.56 | 6.51 | 7.48 | 8.44 | 9.52 | 10.52

C=CC(=O)OC(C)(C)C + C1CCOC1
viscosity [mPa·s], 101 kPa
Conditions | 293.15 K | 298.15 K | 303.15 K | 308.15 K | 313.15 K | 318.15 K
x2 = 0.0736 | 0.8645 | 0.7935 | 0.7273 | 0.6717 | 0.622 | 0.579
x2 = 0.1489 | 0.8229 | 0.757 | 0.6954 | 0.6433 | 0.5964 | 0.5554
x2 = 0.2121 | 0.7896 | 0.7278 | 0.6699 | 0.6206 | 0.5759 | 0.5365
x2 = 0.2773 | 0.7568 | 0.6992 | 0.6449 | 0.5984 | 0.5558 | 0.5179
x2 = 0.362 | 0.7164 | 0.664 | 0.6143 | 0.5711 | 0.5312 | 0.495
x2 = 0.4382 | 0.6823 | 0.6343 | 0.5886 | 0.5482 | 0.5105 | 0.4758
x2 = 0.5024 | 0.6551 | 0.6107 | 0.5681 | 0.53 | 0.494 | 0.4604
x2 = 0.5815 | 0.6237 | 0.5835 | 0.5446 | 0.5091 | 0.475 | 0.4427
x2 = 0.6532 | 0.597 | 0.5605 | 0.5247 | 0.4914 | 0.4589 | 0.4276
x2 = 0.7268 | 0.5716 | 0.5385 | 0.5058 | 0.4745 | 0.4435 | 0.4131
x2 = 0.7921 | 0.5505 | 0.5204 | 0.4902 | 0.4607 | 0.4308 | 0.4012
x2 = 0.8698 | 0.5273 | 0.5006 | 0.4732 | 0.4455 | 0.4168 | 0.3879
x2 = 0.9352 | 0.5094 | 0.4853 | 0.4601 | 0.4337 | 0.4059 | 0.3776

CCNCCO + O=C=O
viscosity [mPa·s], 101.3 kPa
Conditions | 293.15 K | 303.15 K | 313.15 K | 323.15 K
x2 = 0.09091 | 51.76 | 29.14 | 17.6 | 11.32
x2 = 0.1667 | 197.6 | 99.53 | 54.38 | 31.96
x2 = 0.2308 | 791.4 | 361 | 179.9 | 97.29

CCCCOCCO + ClC(Cl)Cl
298.15 K, 101.3 kPa
Conditions | viscosity [mPa·s]
x1 = 0.0035 | 0.536
x1 = 0.0216 | 0.555
x1 = 0.0344 | 0.57
x1 = 0.0767 | 0.628
x1 = 0.1259 | 0.703
x1 = 0.2281 | 0.901
x1 = 0.2903 | 1.042
x1 = 0.3627 | 1.235
x1 = 0.4472 | 1.494
x1 = 0.5049 | 1.659
x1 = 0.5823 | 1.894
x1 = 0.6772 | 2.175
x1 = 0.7828 | 2.429
x1 = 0.8296 | 2.525
x1 = 0.9123 | 2.702

CC(C)CC(C)C + c1ccccc1
101 kPa, x1 = 0.5
Conditions | viscosity [mPa·s]
298 K | 0.3825
318 K | 0.314
